According to PubChem BioAssay (NCI):
“And” between values parts separate entries of the source, which are not always exact repeats. Equal values may be shown once.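 Cells were grown in 96-well plates and exposed to each compound for 48 hours at five concentrations; endpoints were interpolated linearly between bracketing concentrations, or set to the highest concentration if not reached. GI50: concentration for 50% inhibition of growth. The concentration for full growth arrest is given as TGI.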

Legend:
Assay in all cases: NCI-60 cell line screen, 48 h
DMS 273 small cell lung = tested on: DMS 273 small cell lung
ACHN renal = tested on: ACHN renal
NCI-H23 lung = tested on: NCI-H23 lung
IGROV1 ovarian = tested on: IGROV1 ovarian
DMS 114 small cell lung = tested on: DMS 114 small cell lung
COLO 205 colon = tested on: COLO 205 colon
KM12 colon = tested on: KM12 colon
SK-MEL-2 melanoma = tested on: SK-MEL-2 melanoma
OVCAR-4 ovarian = tested on: OVCAR-4 ovarian
NCI-H226 lung = tested on: NCI-H226 lung

| Structure (SMILES) | TGI (DMS 273 small cell lung) | TGI (ACHN renal) | TGI (NCI-H23 lung) | TGI (IGROV1 ovarian) | TGI (DMS 114 small cell lung) | TGI (COLO 205 colon) | TGI (KM12 colon) | TGI (SK-MEL-2 melanoma) | TGI (OVCAR-4 ovarian) | TGI (NCI-H226 lung) | GI50 (ACHN renal) | GI50 (NCI-H23 lung) | GI50 (IGROV1 ovarian) | GI50 (COLO 205 colon) | GI50 (SK-MEL-2 melanoma) | GI50 (NCI-H226 lung) |
| --- | --- | --- | --- | --- | --- | --- | --- | --- | --- | --- | --- | --- | --- | --- | --- | --- |
| O=C(NC(=O)c1c(F)cccc1F)Nc1cccc(Oc2ncc(Cl)cn2)c1 | > 100 µM | > 100 µM | > 100 µM | > 100 µM | > 100 µM | > 100 µM | > 100 µM | > 100 µM | > 100 µM | > 100 µM |  |  |  |  |  |  |
| COc1cc(NS(=O)(=O)c2ccc(C)cc2)c2nccnc2c1 | > 100 µM | 80.8 µM | > 100 µM | > 100 µM | 40.8 µM | 90.1 µM | > 100 µM | 54.5 µM | > 100 µM | > 100 µM |  |  |  |  |  |  |
| COC(=O)C(=O)CC(=O)CCn1[nH]c(=O)c(Cl)c(Cl)c1=O | > 100 µM | > 100 µM | > 100 µM | > 100 µM | > 100 µM | > 100 µM | > 100 µM | > 100 µM | > 100 µM | > 100 µM |  |  |  |  |  |  |
| O=C1C=C(Nc2ccccc2C(=O)CC(=O)C(=O)Nc2cccc([N+](=O)[O-])c2)c2ccccc2C1=O | > 100 µM | > 100 µM | > 100 µM | > 100 µM | 84.9 µM | > 100 µM | > 100 µM | > 100 µM | > 100 µM | > 100 µM |  |  |  |  |  |  |
| O=C1N/C(=C\[N+](=O)[O-])c2ccccc21 | > 100 µM | > 100 µM | > 100 µM | > 100 µM | > 100 µM | > 100 µM | > 100 µM |  | > 100 µM | > 100 µM |  |  |  |  |  |  |
| N[C@H](C(=O)O)[C@@H]1CC(Cl)=NO1 | 328 µM | > 1000 µM | > 1000 µM | 465 µM | 258 µM | > 1000 µM | > 741 µM | 355 µM | > 653 µM | > 316 µM | 28.4 µM | 38.2 µM | 4.41 µM | 43.6 µM | 27.1 µM | 39.9 µM and 10.8 µM |
| CC(=O)c1ccc(NC(=O)/C(CC(=O)c2sc(-c3cccnc3)nc2C)=N/NC(N)=O)cc1 |  | 56.1 µM |  | > 100 µM | > 100 µM | 35.2 µM | > 100 µM | > 100 µM | > 100 µM | 75.6 µM |  |  |  |  |  |  |
| NC1=NN(c2ccccc2)C(=O)C1C(=O)CCC(=O)Nc1cccc(Cl)c1 (centres undefined) | > 100 µM | > 100 µM | > 100 µM | > 100 µM | > 100 µM | > 100 µM | > 100 µM | > 100 µM | > 100 µM | > 100 µM |  |  |  |  |  |  |
| CCCC1(CC(=O)O)OCCc2c1[nH]c1ccccc21 (centres undefined) | > 100 µM | > 100 µM | > 100 µM | > 100 µM | > 100 µM | > 100 µM | > 100 µM | > 100 µM | > 100 µM | > 100 µM |  |  |  |  |  |  |
| N#CCC(=O)N/N=C1/C(=O)N(c2ccc(Cl)cc2)C(=O)C(=O)C1c1nc2ccccc2s1 (centres undefined) | > 100 µM | > 100 µM | > 100 µM | > 100 µM | > 100 µM | > 100 µM | > 100 µM | > 100 µM | > 100 µM | > 100 µM |  |  |  |  |  |  |
| CN(C)CCC(=O)N1C/C(=C\c2ccc(Cl)c(Cl)c2)C(=O)/C(=C/c2ccc(Cl)c(Cl)c2)C1 | 0.316 µM | 1.05 µM | 1.5 µM | 0.648 µM |  | 0.636 µM | 0.948 µM | 3.34 µM | 0.777 µM | 1.86 µM |  |  |  |  |  |  |
| O=C(Nc1ccc(Cl)cc1)C1C(=O)C(=O)N(c2ccc(Cl)cc2)C1=O (centres undefined) | > 100 µM | > 100 µM | > 100 µM | > 100 µM | > 100 µM | > 100 µM | > 100 µM | > 100 µM |  | > 100 µM |  |  |  |  |  |  |
| CCCCCCCCCCCC(=O)OCCOCCOCCOCCOCCOC(=O)CCCCCCCCCCC | > 100 µM | > 100 µM | > 100 µM | > 100 µM | > 100 µM | > 100 µM | > 100 µM | > 100 µM | > 100 µM | > 100 µM |  |  |  |  |  |  |
| COc1ccc(NC(=O)CC/C(CC(=O)c2ccco2)=N/NC(=O)C(N)=O)cc1 | > 100 µM | > 100 µM | > 100 µM | > 100 µM | > 100 µM | > 100 µM | > 100 µM | > 100 µM | > 100 µM | > 100 µM |  |  |  |  |  |  |
| C=CC[P@]1(=O)O[C@H](c2ccccc2)[C@H](C)N1C | > 100 µM | > 100 µM | > 100 µM | > 100 µM | > 100 µM |  | > 100 µM |  | > 100 µM | > 100 µM |  |  |  |  |  |  |
